From paper PMC5578959, “Selective LRRK2 kinase inhibition reduces phosphorylation of endogenous Rab10 and Rab12 in human peripheral mononuclear blood cells” (Scientific Reports, 2017)
Where “and” joins values, the source holds several entries; their conditions need not be identical. Equal entries are not always repeated.

What was measured:
Assay in all cases: KiNativ profiling in human PBMCs
Assay type in all cases: binding
[1] = tested on: T1, STLK3; settings: Lys2
T1 construct: purchased ActivX Technologies (KiNativ)
Summary of the method: (§1)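 Compound concentrations: 1 µM and 0.1 µM, applied to intact human PBMCs; engagement of kinases determined with the KiNativ approach.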

[2] = tested on: T2, IRAK3; settings: Lys1
T2 construct: purchased ActivX Technologies (KiNativ)
Summary of the method: as §1

[3] = tested on: T3, CaMKK2
T3 construct: purchased ActivX Technologies (KiNativ)
Summary of the method: as §1

[4] = tested on: T4, MST3
T4 construct: purchased ActivX Technologies (KiNativ)
Summary of the method: as §1

[5] = tested on: T5, FRAP; settings: ATP
T5 construct: purchased ActivX Technologies (KiNativ)
Summary of the method: as §1

[6] = tested on: T6, LRRK2
T6 construct: purchased ActivX Technologies (KiNativ)
Summary of the method: as §1

[7] = tested on: T7, GSK3B; settings: Lys2
T7 construct: purchased ActivX Technologies (KiNativ)
Summary of the method: as §1

[8] = tested on: T8, ZAP70
T8 construct: purchased ActivX Technologies (KiNativ)
Summary of the method: as §1

[9] = tested on: T9, RSK1 domain1
T9 construct: RSK1 domain1; purchased ActivX Technologies (KiNativ)
Summary of the method: as §1

[10] = tested on: T10, ULK1; settings: Lys2
T10 construct: purchased ActivX Technologies (KiNativ)
Summary of the method: as §1

[11] = tested on: T11, DNAPK; settings: ATP
T11 construct: purchased ActivX Technologies (KiNativ)
Summary of the method: as §1

[12] = tested on: T12, SMG1; settings: ATP
T12 construct: purchased ActivX Technologies (KiNativ)
Summary of the method: as §1

[13] = tested on: T13, CaMK4
T13 construct: purchased ActivX Technologies (KiNativ)
Summary of the method: as §1

[14] = tested on: T14, CaMK1a
T14 construct: purchased ActivX Technologies (KiNativ)
Summary of the method: as §1

[15] = tested on: T15, Erk2; settings: Lys2
T15 construct: purchased ActivX Technologies (KiNativ)
Summary of the method: as §1

[16] = tested on: T16, LCK; settings: Activation Loop
T16 construct: purchased ActivX Technologies (KiNativ)
Summary of the method: as §1

[17] = tested on: T17, PI4KB; settings: ATP
T17 construct: purchased ActivX Technologies (KiNativ)
Summary of the method: as §1

## Cc1cccc(-c2cc(Nc3ccn(C)n3)nc3[nH]cc(C#N)c23)c1 [Lu AF58786]
[1]; 0.1µM
  Inhibition: 22.4%
[1]; 1µM
  Inhibition: -36.2%
[2]; 0.1µM
  Inhibition: -25.6%
[2]; 1µM
  Inhibition: 17.0%
[3]; 0.1µM, Lys2
  Inhibition: 13.8%
[3]; 1µM, Lys2
  Inhibition: 1.3%
[4]; 0.1µM, Lys2
  Inhibition: 12.8%
[4]; 1µM, Lys2
  Inhibition: 1.2%
[5]; 0.1µM
  Inhibition: 5.2%
[5]; 1µM
  Inhibition: -3.4%
[6]; 0.1 µM, Lys2
  Inhibition: 83% and 83.4%
[6]; 1 µM, Lys2
  Inhibition: 93% and 93.4%
[7]; 0.1µM
  Inhibition: 9.9%
[7]; 1µM
  Inhibition: 21.4%
[8]; 0.1µM, Activation Loop
  Inhibition: 14.7%
[8]; 0.1µM, Lys1
  Inhibition: 4.6%
[8]; 1µM, Activation Loop
  Inhibition: 7.0%
[8]; 1µM, Lys1
  Inhibition: 7.9%
[9]; 0.1µM, Activation Loop
  Inhibition: 8.7%
[9]; 0.1µM, Lys2
  Inhibition: -0.654%
[9]; 1µM, Activation Loop
  Inhibition: 18.4%
[9]; 1µM, Lys2
  Inhibition: 12.8%
[10]; 0.1µM
  Inhibition: -3.7%
[10]; 1µM
  Inhibition: -7.0%
[11]; 0.1 µM, EHPFLVKGGEDLR
  Inhibition: 19.6%
[11]; 0.1 µM, KGGSWIQEINVAEK
  Inhibition: -21.8%
[11]; 1 µM, KGGSWIQEINVAEK
  Inhibition: 2.3%
[12]; 0.1 µM, DTVTIHSVGGTITILPTKTKPK
  Inhibition: -6.3%
[12]; 0.1 µM, SYPYLFKGLEDLHLDER
  Inhibition: 12.6%
[12]; 1 µM, DTVTIHSVGGTITILPTKTKPK
  Inhibition: -13.9%
[12]; 1 µM, SYPYLFKGLEDLHLDER
  Inhibition: 4.3%
[13]; 0.1µM, Lys1
  Inhibition: 11.0%
[13]; 0.1µM, Lys2
  Inhibition: 14.0%
[13]; 1µM, Lys1
  Inhibition: 23.7%
[13]; 1µM, Lys2
  Inhibition: 12.9%
[14]; 0.1µM, Lys1
  Inhibition: 11.0%
[14]; 1µM, Lys1
  Inhibition: -3.0%
[15]; 0.1µM
  Inhibition: 2.4%
[15]; 1µM
  Inhibition: 1.7%
[16]; 1µM
  Inhibition: 5.7%
[17]; 0.1µM
  Inhibition: 15.3%
[17]; 1µM
  Inhibition: 6.2%

## Cn1cc(-c2c[nH]c3ncnc(N4CCOCC4)c23)cc1C#N [PFE-360]
[1]; 0.1µM
  % Inhibition: -1.9%
[1]; 1µM
  % Inhibition: -6.2%
[2]; 0.1µM
  % Inhibition: -1.2%
[2]; 1µM
  % Inhibition: 3%
[3]; 0.1µM, Lys1
  % Inhibition: -23.9%
[3]; 0.1µM, Lys2
  % Inhibition: -16.3%
[3]; 1µM, Lys1
  % Inhibition: -1.2%
[3]; 1µM, Lys2
  % Inhibition: 4.6%
[4]; 0.1µM, Lys1
  % Inhibition: -15.8%
[4]; 0.1µM, Lys2
  % Inhibition: -6.1%
[4]; 1µM, Lys1
  % Inhibition: -21.2%
[4]; 1µM, Lys2
  % Inhibition: -16.2%
[5]; 0.1µM
  % Inhibition: -1.2%
[6]; 0.1µM, Lys1
  % Inhibition: >90%
[6]; 0.1µM, Lys2
  % Inhibition: 93.8%
  Inhibition: full inhibition
[6]; 1µM, Lys1
  % Inhibition: >90%
[6]; 1µM, Lys2
  % Inhibition: 96.7%
[7]; 0.1µM
  % Inhibition: 11.2%
[7]; 1µM
  % Inhibition: 14.9%
[8]; 0.1µM, Activation Loop
  % Inhibition: -0.7%
[8]; 0.1µM, Lys1
  % Inhibition: 0.4%
[8]; 1µM, Activation Loop
  % Inhibition: -9.8%
[8]; 1µM, Lys1
  % Inhibition: -5.9%
[9]; 0.1µM, Activation Loop
  % Inhibition: 4.6%
[9]; 0.1µM, Lys1
  % Inhibition: -11.3%
[9]; 0.1µM, Lys2
  % Inhibition: -4.4%
[9]; 1µM, Activation Loop
  % Inhibition: 1.1%
[9]; 1µM, Lys1
  % Inhibition: 3.4%
[9]; 1µM, Lys2
  % Inhibition: 10.9%
[10]; 0.1µM
  % Inhibition: 9.8%
[10]; 1µM
  % Inhibition: 4.2%
[11]; 0.1µM, peptide EHPFLVKGGEDLR
  % Inhibition: 0.3%
[11]; 0.1µM, peptide KGGSWIQEINVAEK
  % Inhibition: -1.9%
[11]; 1µM, peptide EHPFLVKGGEDLR
  % Inhibition: -12.5%
[11]; 1µM, peptide KGGSWIQEINVAEK
  % Inhibition: -4.9%
[12]; 0.1µM, peptide DTVTIHSVGGTITILPTKTKPK
  % Inhibition: -4.6%
[12]; 0.1µM, peptide SYPYLFKGLEDLHLDER
  % Inhibition: 7%
[12]; 1µM, peptide DTVTIHSVGGTITILPTKTKPK
  % Inhibition: -3%
[12]; 1µM, peptide SYPYLFKGLEDLHLDER
  % Inhibition: -11.6%
[13]; 0.1µM, Lys1
  % Inhibition: -10.2%
[13]; 0.1µM, Lys2
  % Inhibition: 15%
[13]; 1µM, Lys1
  % Inhibition: -8.5%
[13]; 1µM, Lys2
  % Inhibition: 9.5%
[14]; 0.1µM, Lys1
  % Inhibition: -2.5%
[14]; 0.1µM, Lys2
  % Inhibition: -12.3%
[14]; 1µM, Lys1
  % Inhibition: 3.5%
[14]; 1µM, Lys2
  % Inhibition: -25%
[15]; 0.1µM
  % Inhibition: 9.1%
[15]; 1µM
  % Inhibition: 5.3%
[16]; 0.1µM
  % Inhibition: -11.6%
[16]; 1µM
  % Inhibition: -0.3%
[17]; 0.1µM, peptide LLSVIVKCGDDLRQELLAFQVLK
  % Inhibition: -14.7%
[17]; 0.1µM, peptide VPHTQAVVLNSKDK
  % Inhibition: 3.6%
[17]; 1µM, peptide LLSVIVKCGDDLRQELLAFQVLK
  % Inhibition: -10.6%
[17]; 1µM, peptide VPHTQAVVLNSKDK
  % Inhibition: -12.4%
